This is an account of results in publication PMC6016545 (Journal of medicinal chemistry, 2016).

Read-outs that look alike come from different tables or passages of the source.

Series [1] deals with T1, PSMA (Homo sapiens, UniProt Q04609). Kind of series: PSMA inhibition, IC50 determination.
In series [2] the target is T1, PSMA. The experiment in a line: Mode of inhibition study. The following applies: reversible, slowly reversible, or irreversible.
Another series concerns PSMA(+) PC3-PIP cells. Particulars: cited from earlier work.

T1 sequence (Q04609 whole entry): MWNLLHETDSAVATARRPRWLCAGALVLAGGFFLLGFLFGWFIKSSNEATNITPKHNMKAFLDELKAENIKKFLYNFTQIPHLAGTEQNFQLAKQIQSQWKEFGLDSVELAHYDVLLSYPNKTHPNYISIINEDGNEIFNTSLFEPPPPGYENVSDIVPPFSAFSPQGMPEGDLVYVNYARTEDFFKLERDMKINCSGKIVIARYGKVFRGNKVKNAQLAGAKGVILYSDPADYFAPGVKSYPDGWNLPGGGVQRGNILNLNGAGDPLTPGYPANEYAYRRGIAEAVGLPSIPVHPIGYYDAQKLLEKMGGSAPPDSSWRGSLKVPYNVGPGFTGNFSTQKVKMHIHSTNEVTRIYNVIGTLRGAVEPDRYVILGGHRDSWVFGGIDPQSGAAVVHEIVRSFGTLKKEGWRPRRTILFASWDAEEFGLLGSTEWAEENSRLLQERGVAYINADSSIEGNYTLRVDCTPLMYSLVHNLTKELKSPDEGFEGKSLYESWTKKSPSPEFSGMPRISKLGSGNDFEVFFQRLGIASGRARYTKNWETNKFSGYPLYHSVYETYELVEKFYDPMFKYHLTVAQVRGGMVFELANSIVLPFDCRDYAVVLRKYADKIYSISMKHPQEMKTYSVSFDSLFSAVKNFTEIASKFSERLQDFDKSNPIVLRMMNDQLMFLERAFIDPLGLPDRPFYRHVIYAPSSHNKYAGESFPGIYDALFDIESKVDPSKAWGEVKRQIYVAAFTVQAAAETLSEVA

For orientation: IC50 means the point on the concentration scale where inhibition reaches its midpoint. Read a high IC50 as lower potency. Take `NCCCCCC(=O)NCCCCCC(=O)N[C@@H](CCC(=O)N[C@H](CCCOP(=O)(O)NC(CCC(=O)O)C(=O)O)C(=O)O)C(=O)O` (stereo partly drawn) [compound 3, 2-(((S)-((4R)-4-(4-(6-(6-Aminohexanamido)-hexanamido)-4-carboxybutanamido)-4-carboxybutoxy)-(hydroxy)phosphoryl)amino)pentanedioic Acid]: the 50% inhibitory concentration (IC50) at PSMA [1] amounted to 7800 pM. In other words, the single-digit nanomolar range.
With `O=C(O)CCC(NP(=O)(O)OCCC[C@@H](NC(=O)CC[C@H](NC(=O)CCCCCNC(=O)CCCCCNC(=O)c1ccc(F)cc1)C(=O)O)C(=O)O)C(=O)O` (stereo partly drawn) [compound 6, 2-(((S)-(((22R)-17,22-Dicarboxy-1-(4-fluoro-phenyl)-1,8,15,20-tetraoxo-2,9,16,21-tetraazapentacosan-25-yl)oxy)(hydroxy)phosphoryl)amino)pentanedioic Acid], the IC50 against PSMA [1] turned out to be 900 pM. Further, the “mode of binding to PSMA” value on PSMA [2] is “irreversible”.
With `O=C(O)CC[C@H](NC(=O)N[C@@H](CSCc1ccc([18F])cc1)C(=O)O)C(=O)O` [[^18F]DCFBC, N[N-[(S)-1,3-dicarboxypropyl]carbamoyl]-4-[^18F] fluorobenzyl-L-cysteine], in the series with PSMA(+) PC3-PIP cells (PSMA(+) PC3-PIP cells), the tumor uptake is 4.7% and the tumor/blood ratio was 13.
For `O=C(O)CCC(NC(=O)NC(CCCCNC(=O)c1ccc([18F])nc1)C(=O)O)C(=O)O` (stereo not shown) [[^18F]DCFPyL, 2-(3-(1-carboxy-5-[(6-[^18F]-fluoropyridine-3-carbonyl)amino]pentyl)ureido)pentanedioic acid], in the series with PSMA(+) PC3-PIP cells (2 h), the liver uptake is reported as 2.14% and the renal uptake was 15.7%. Further, the tumor uptake with PSMA(+) PC3-PIP cells (2 h in PC3-PIP cells) is given as 39.4%.
Take `O=C(O)CC[C@H](NP(=O)(O)OCCC[C@H](NC(=O)CC[C@H](NC(=O)CCCCCNC(=O)c1ccc(F)cc1)C(=O)O)C(=O)O)C(=O)O` [compound 5]: at PSMA [1], the IC50 worked out at 400 pM. For the same compound, the “mode of binding to PSMA” value on PSMA [2] is given as “irreversible”.
